Test results taken from ChEMBL document CHEMBL3526155, “Endoxifen, the active metabolite of tamoxifen, is a substrate of the efflux transporter P-glycoprotein (multidrug resistance 1)” (Drug Metab Dispos, 2011).

Assays:
MDR1 (ABCB1) [1] = molecular target: T1, MDR1 (ABCB1) (Homo sapiens, UniProt P08183); assay: Activity of human MDR1 expressed in pig LLC-PK cells assessed as apparent permeability from basolateral to apical side at 5 uM after 1 to 4 hrs by LC-MS/MS analysis; format: ADME, cell-based; conditions: LLC-PK1
T1 sequence (P08183 whole entry): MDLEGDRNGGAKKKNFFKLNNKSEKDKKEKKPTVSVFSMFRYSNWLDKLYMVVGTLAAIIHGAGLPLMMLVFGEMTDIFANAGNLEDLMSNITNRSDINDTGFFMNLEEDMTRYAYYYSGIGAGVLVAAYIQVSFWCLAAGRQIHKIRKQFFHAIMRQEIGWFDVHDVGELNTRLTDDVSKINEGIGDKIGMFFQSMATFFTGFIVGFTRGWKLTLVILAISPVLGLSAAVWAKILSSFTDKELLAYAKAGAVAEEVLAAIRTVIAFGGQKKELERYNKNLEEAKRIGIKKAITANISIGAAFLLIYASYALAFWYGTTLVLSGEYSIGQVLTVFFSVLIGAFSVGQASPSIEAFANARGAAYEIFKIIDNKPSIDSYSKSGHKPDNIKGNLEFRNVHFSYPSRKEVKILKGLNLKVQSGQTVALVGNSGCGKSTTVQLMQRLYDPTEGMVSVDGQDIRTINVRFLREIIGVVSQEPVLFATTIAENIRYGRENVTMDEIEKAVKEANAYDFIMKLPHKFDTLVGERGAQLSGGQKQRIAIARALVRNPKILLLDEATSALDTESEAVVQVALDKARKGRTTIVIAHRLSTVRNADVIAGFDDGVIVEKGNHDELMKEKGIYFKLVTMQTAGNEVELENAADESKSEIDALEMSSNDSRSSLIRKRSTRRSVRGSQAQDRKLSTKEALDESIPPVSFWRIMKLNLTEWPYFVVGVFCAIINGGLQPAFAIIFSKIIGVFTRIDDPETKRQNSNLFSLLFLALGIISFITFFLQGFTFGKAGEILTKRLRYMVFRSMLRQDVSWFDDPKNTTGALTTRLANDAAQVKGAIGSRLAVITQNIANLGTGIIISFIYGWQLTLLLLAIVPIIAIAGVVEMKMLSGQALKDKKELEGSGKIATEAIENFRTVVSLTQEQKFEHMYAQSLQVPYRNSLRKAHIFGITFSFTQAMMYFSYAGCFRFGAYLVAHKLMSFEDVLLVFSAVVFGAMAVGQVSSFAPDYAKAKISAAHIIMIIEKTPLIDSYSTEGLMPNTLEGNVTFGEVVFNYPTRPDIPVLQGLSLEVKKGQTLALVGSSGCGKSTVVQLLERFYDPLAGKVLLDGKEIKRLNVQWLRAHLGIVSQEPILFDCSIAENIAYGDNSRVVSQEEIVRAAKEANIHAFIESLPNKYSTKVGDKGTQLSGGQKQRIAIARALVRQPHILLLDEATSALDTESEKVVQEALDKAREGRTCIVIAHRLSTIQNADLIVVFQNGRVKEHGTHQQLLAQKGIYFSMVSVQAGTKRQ

[2] = Apparent permeability from basolateral to apical side in pig LLC-PK cells at 5 uM after 1 to 4 hrs by LC-MS/MS analysis; format: ADME, cell-based, Sus scrofa; conditions: LLC-PK1
[3] = Efflux ratio of apparent permeability from basolateral to apical to apical to basolateral side in pig LLC-PK cells at 5 uM after 1 to 4 hrs by LC-MS/MS analysis; format: ADME, cell-based, Sus scrofa; conditions: LLC-PK1
[4] = Apparent permeability from apical to basolateral side in pig LLC-PK cells at 5 uM after 1 to 4 hrs by LC-MS/MS analysis; format: ADME, cell-based, Sus scrofa; conditions: LLC-PK1
MDR1 (ABCB1) [5] = molecular target: T1, MDR1 (ABCB1); assay: Activity of human MDR1 expressed in pig LLC-PK cells assessed as apparent permeability from apical to basolateral side at 5 uM after 1 to 4 hrs by LC-MS/MS analysis; format: ADME, cell-based; conditions: LLC-PK1
MDR1 (ABCB1) [6] = molecular target: T1, MDR1 (ABCB1); assay: Activity of human MDR1 expressed in pig LLC-PK cells assessed as efflux ratio of apparent permeability from basolateral to apical to apical to basolateral side at 5 uM after 1 to 4 hrs by LC-MS/MS analysis; format: ADME, cell-based; conditions: LLC-PK1
Plasma [7] = assay: Drug uptake in wild-type CF-1 mouse plasma at 5 mg/kg, po after 0.5 to 4 hrs by LC-MS/MS analysis; format: ADME, organism-based; parameters: dose 5 mg/kg, route oral; conditions: in vivo
Plasma [8] = assay: Drug uptake in MDR1A-deficient CF-1 mouse plasma at 5 mg/kg, po after 0.5 to 4 hrs by LC-MS/MS analysis; format: ADME, organism-based; parameters: dose 5 mg/kg, route oral; conditions: in vivo
Liver [9] = assay: Drug uptake in wild-type CF-1 mouse liver at 5 mg/kg, po after 0.5 to 4 hrs by LC-MS/MS analysis; format: ADME, organism-based; parameters: dose 5 mg/kg, route oral; conditions: in vivo
Liver [10] = assay: Drug uptake in MDR1A-deficient CF-1 mouse liver at 5 mg/kg, po after 0.5 to 4 hrs by LC-MS/MS analysis; format: ADME, organism-based; parameters: dose 5 mg/kg, route oral; conditions: in vivo
Brain [11] = assay: Drug uptake in wild-type CF-1 mouse brain at 5 mg/kg, po after 0.5 to 4 hrs by LC-MS/MS analysis; format: ADME, organism-based; parameters: dose 5 mg/kg, route oral; conditions: in vivo
Brain [12] = assay: Drug uptake in MDR1A-deficient CF-1 mouse brain at 5 mg/kg, po after 0.5 to 4 hrs by LC-MS/MS analysis; format: ADME, organism-based; parameters: dose 5 mg/kg, route oral; conditions: in vivo
[13] = Ratio of drug level in brain to plasma in MDR1A-deficient CF-1 mouse at 5 mg/kg, po after 0.5 to 4 hrs by LC-MS/MS analysis; format: ADME, organism-based; parameters: dose 5 mg/kg, route oral; conditions: read-out: BPR
Brain [14] = assay: Drug uptake in MDR1A-deficient CF-1 mouse brain at 5 mg/kg, po after 0.5 to 4 hrs by LC-MS/MS analysis relative to wild-type; format: ADME, organism-based; parameters: dose 5 mg/kg, route oral; conditions: in vivo

| Papp B→A at 5 µM (MDR1 (ABCB1) [1]) | Papp B→A at 5 µM [2] | efflux ratio at 5 µM [3] | Papp A→B at 5 µM [4] | Papp A→B at 5 µM (MDR1 (ABCB1) [5]) | efflux ratio at 5 µM (MDR1 (ABCB1) [6]) | Drug uptake (Plasma [7]) | Drug uptake (Plasma [8]) | Drug uptake (Liver [9]) | Drug uptake (Liver [10]) | Drug uptake (Brain [11]) | Drug uptake (Brain [12]) | Kp [13] | Ratio (Brain [14]) | Structure (SMILES) |
| --- | --- | --- | --- | --- | --- | --- | --- | --- | --- | --- | --- | --- | --- | --- |
| 6.74 ×10⁻⁶ cm/s | – | – | – | – | – | – | – | – | – | – | – | – | – | C[C@H]1O[C@@H](O[C@H]2[C@@H](O)C[C@H](O[C@H]3[C@@H](O)C[C@H](O[C@H]4CC[C@@]5(C)[C@H](CC[C@@H]6[C@@H]5C[C@@H](O)[C@]5(C)[C@@H](C7=CC(=O)OC7)CC[C@]65O)C4)O[C@@H]3C)O[C@@H]2C)C[C@H](O)[C@@H]1O [DIGOXIN] |
| 2.77 ×10⁻⁶ cm/s | 2.15 ×10⁻⁶ cm/s | 1.07 | 1.83 ×10⁻⁶ cm/s | 1.1 ×10⁻⁶ cm/s | 2.67 | Active | Active | Active | Active | Active | Active | > 10 | 20 | CC/C(=C(\c1ccc(O)cc1)c1ccc(OCCNC)cc1)c1ccccc1 [ENDOXIFEN] |
